Experimental data: US20250084080A1, “CRYSTALLINE AND SALT FORMS OF AN NLRP3 INHIBITOR” (BioAge Labs, Inc., priority 2023, published 2025)

How the values were obtained:
Format in all cases: physicochemical
[1] = Bulk stability (solid state, 1 week; HPLC, XRPD, IC, color); design: key to CL (color): A: no change of color; B: slight discoloration; C: medium discoloration; D: strong discoloration; details: for Bulk (HPLC) Purity / Bulk (XRPD) / CL (color) / Stoichiometry by IC (Free form:HCl = 1:x): Solid state
Experimental: Bulk stability of free form Pattern B was evaluated at 25° C./92.5% RH in an open container, at 40° C./75% RH in an open container and at 60° C. in a tight container over 1 week.

[2] = Solubility at 37° C. in buffers and biorelevant media, XRPD of residual solid; details: for solubility at 2 h / solubility at 24 h: thermodynamic from solid
Experimental: Solubility of BAL-0748 free form Pattern B was investigated in pH 1.2 HCl buffer, pH 4.5 50 mM acetate buffer, pH 6.8 50 mM phosphate buffer, water, pH 1.6 FaSSGF, pH 6.5 FaSSIF-v1, pH 5.0 FeSSIF-v1 and 2% HPMC+1% Pluronic F68 in pH 4.5 50 mM acetate buffer at 37° C. for 2 h and 24 h. Residual solids after the solubility test were analyzed by XRPD.
Solubility of the free form Pattern A, the HCl salt Pattern A, the phosphate salt Pattern A, and the sodium salt Pattern A was measured in pH 1.2 HCl buffer, pH 4.5 acetate buffer (50 mM), pH 6.8 phosphate buffer (50 mM), water, pH 1.6 FaSSGF, pH 6.5 FaSSIF-v1, pH 5.0 FeSSIF-v1, and 2% HPMC+1% Pluronic F68 in pH 4.5 acetate buffer (50 mM) at 37° C. for 2 hours and 24 hours.
10.4 mg of the free form Pattern A, 10.0 mg of the free form Pattern B, 10.8 mg of the HCl salt Pattern A, 12.2 mg of the phosphate salt Pattern A, or 10.5 mg of the sodium salt Pattern A was weighed into a 20 mL glass vial, respectively. 5 mL of solubility medium was added. The salt amount used was equivalent to 10 mg anhydrous free form. Obtained suspensions were stirred at 37° C. at 400 rpm and sampled at 2 hours and at 24 hours. The samples were centrifuged at 37° C. at 14,000 rpm for 5 min. Supernatants were analyzed by HPLC and PH meter for solubility and pH value, respectively. Residual solids (wet cakes) from the 24 hours samples were also characterized by XRPD to determine physical form.

[3] = Hygroscopicity by dynamic vapor sorption (DVS) at 25° C.; details: for Desorp. (%) / Sorp. (%): DVS 25° C.
Experimental: Dynamic vapor sorption (DVS) was performed on an Intrinsic, Advantage or Adventure with an oven temperature of 25° C. using water as a solvent. The sample mass was about 5-10 mg using the following method: • Cycle: 40-0-95-0-40% RH • Stage Step: 10% • Equilibrium: 0.002 dm/dt (%/min) • Minimum dm/dt stability duration: 60 min • Maximum dm/dt stage time: 360 min. Hygroscopicity of free form Pattern B was evaluated by dynamic vapor sorption (DVS) test at 25° C. […] It absorbed about 0.8% water at 80% RH at 25° C.

[4] = 25° C./92.5% RH open, 40° C./75% RH open, 60° C. tight container
[5] = aqueous buffer, pH 4.5 acetate buffer (50 mM), 37° C.
[6] = aqueous buffer, pH 6.8 phosphate buffer (50 mM), 37° C.
[7] = aqueous with cosolvent or surfactant or cyclodextrin, 2% HPMC + 1% Pluronic F68 in pH 4.5 acetate buffer (50 mM), 37° C.
[8] = fassgf or other biorelevant, FaSSGF, pH 1.6, 37° C.
[9] = simulated gastric fluid, pH 1.2 HCl buffer, 37° C.

CCOc1cc(C(=O)N(C)Cc2cnc(CO)c3cn[nH]c23)ccc1-c1cc(F)cc(F)c1.Cl [HCl salt Pattern A, 2-ethoxy-3′,5′-difluoro-N-((4-(hydroxymethyl)-1H-pyrazolo[4,3-c]pyridin-7-yl)methyl)-N-methyl-[1,1′-biphenyl]-4-carboxamide hydrochloric acid salt]
Bulk stability, chemical and physical [1, 4]: chemically and physically stable | Degradation by HPLC [1, 4]: no obvious degradation | Form change by XRPD [1, 4]: no form change | Bulk (HPLC) Purity ([1]; 25° C./92.5% RH, open): 99.1% | Bulk (XRPD) ([1]; 25° C./92.5% RH, open): No form change | CL (color) ([1]; 25° C./92.5% RH, open): A | Stoichiometry by IC (Free form:HCl = 1:x) ([1]; 25° C./92.5% RH, open): 0.97 | Bulk (HPLC) Purity ([1]; 40° C./75% RH, open): 98.9% | Bulk (XRPD) ([1]; 40° C./75% RH, open): No form change | CL (color) ([1]; 40° C./75% RH, open): A | Stoichiometry by IC (Free form:HCl = 1:x) ([1]; 40° C./75% RH, open): 0.99 | Bulk (HPLC) Purity ([1]; 60° C., closed): 98.9% | Bulk (XRPD) ([1]; 60° C., closed): No form change | CL (color) ([1]; 60° C., closed): A | Stoichiometry by IC (Free form:HCl = 1:x) ([1]; 60° C., closed): 0.97 | pH of supernatant at 24 h ([2]; 2% HPMC + 1% Pluronic F68 in pH 4.5 acetate buffer (50 mM), 37° C.): (4.4) | Solubility compared with the free form Pattern A ([2]; 2% HPMC+1% Pluronic F68 in acetate buffer (pH 4.5)): comparable solubility | pH of supernatant at 24 h ([2]; FaSSGF, pH 1.6, 37° C.): (1.5) | pH of supernatant at 24 h ([2]; FaSSIF-v1, pH 6.5, 37° C.): (6.3) | pH of supernatant at 24 h ([2]; FeSSIF-v1, pH 5.0, 37° C.): (4.9) | pH of supernatant at 24 h ([2]; Water, 37° C.): (2.5) | solubility at 2 h [2, 5]: 14.4 µg/mL | solubility at 24 h [2, 5]: 10 µg/mL | solubility at 2 h [2, 6]: 3.3 µg/mL | solubility at 24 h [2, 6]: 2.3 µg/mL | solubility at 2 h [2, 7]: 29.5 µg/mL | solubility at 24 h [2, 7]: 26.7 µg/mL | solubility at 2 h [2, 8]: 556 µg/mL | solubility at 24 h [2, 8]: 522 µg/mL | pH of supernatant at 24 h ([2]; pH 1.2 HCl buffer, 37° C.): (1.2) | pH of supernatant at 24 h ([2]; pH 4.5 acetate buffer (50 mM), 37° C.): (4.3) | Higher solubility compared with the free form Pattern A ([2]; pH 5.0 FeSSIF-v1, 2 h): 1 fold | pH of supernatant at 24 h ([2]; pH 6.8 phosphate buffer (50 mM), 37° C.): (6.7) | Solubility compared with the free form Pattern A ([2]; pure water): obviously higher solubility | solubility at 2 h [2, 9]: 362 µg/mL | solubility at 24 h [2, 9]: 277 µg/mL | solubility at 2 h ([2]; FaSSIF-v1, pH 6.5, 37° C.): 11.8 µg/mL | solubility at 24 h ([2]; FaSSIF-v1, pH 6.5, 37° C.): 8.4 µg/mL | solubility at 2 h ([2]; FeSSIF-v1, pH 5.0, 37° C.): 238 µg/mL | solubility at 24 h ([2]; FeSSIF-v1, pH 5.0, 37° C.): 151 µg/mL | solubility at 2 h ([2]; Water, 37° C.): 568 µg/mL | solubility at 24 h ([2]; Water, 37° C.): 504 µg/mL | Desorp. (%) ([3]; 0% RH, 1st desorption): 0.51% | Sorp. (%) ([3]; 0% RH, 1st sorption): 0.51% | Desorp. (%) ([3]; 0% RH, 2nd desorption): 0.15% | Sorp. (%) ([3]; 0% RH, 2nd sorption): 0.15% | Desorp. (%) ([3]; 10% RH, 1st desorption): 0.61% | Sorp. (%) ([3]; 10% RH, 1st sorption): 0.61% | Desorp. (%) ([3]; 10% RH, 2nd desorption): 0.24% | Sorp. (%) ([3]; 10% RH, 2nd sorption): 0.20% | Desorp. (%) ([3]; 20% RH, 1st desorption): 0.65% | Sorp. (%) ([3]; 20% RH, 1st sorption): 0.68% | Desorp. (%) ([3]; 20% RH, 2nd desorption): 0.28% | Sorp. (%) ([3]; 20% RH, 2nd sorption): 0.24% | Desorp. (%) ([3]; 30% RH, 1st desorption): 0.69% | Sorp. (%) ([3]; 30% RH, 1st sorption): 0.78% | Desorp. (%) ([3]; 30% RH, 2nd desorption): 0.35% | Sorp. (%) ([3]; 30% RH, 2nd sorption): 0.27% | Desorp. (%) ([3]; 40% RH, 1st desorption): 0.72% | Sorp. (%) ([3]; 40% RH, 1st sorption): 0.75% | Desorp. (%) ([3]; 40% RH, 2nd desorption): 0.42% | Sorp. (%) ([3]; 40% RH, 2nd sorption): 0.29% | Sorp. (%) ([3]; 50% RH, 1st sorption): 0.80% | Desorp. (%) ([3]; 50% RH, 2nd desorption): 0.54% | Sorp. (%) ([3]; 60% RH, 1st sorption): 0.85% | Desorp. (%) ([3]; 60% RH, 2nd desorption): 0.68% | Sorp. (%) ([3]; 70% RH, 1st sorption): 0.96% | Desorp. (%) ([3]; 70% RH, 2nd desorption): 0.84% | Sorp. (%) ([3]; 80% RH, 1st sorption): 1.00% | Desorp. (%) ([3]; 80% RH, 2nd desorption): 1.07% | Sorp. (%) ([3]; 90% RH, 1st sorption): 1.37% | Desorp. (%) ([3]; 90% RH, 2nd desorption): 1.54% | Sorp. (%) ([3]; 95% RH, 1st sorption): 2.20% | Desorp. (%) ([3]; 95% RH, 2nd desorption): 2.20% | XRPD after DVS test ([3]; DVS at 25° C.): No form change | Water absorbed at 80% RH ([3]; DVS at 25° C., 80% RH): It absorbed 1.0%
